# Experimental data reported in patent US20210330756A1, “Acetylation of Miro1” (University of South Carolina, priority 2020, published 2021).
# Tested on: distal axons and growth cones of DRG neurons
# Assay: CALI of Mito-KR to ablate mitochondria in distal axons of DRG cultures
# Type: cell-based, rat
# Source text: For this, we turned to chromophore-assisted light inactivation (CALI) to ablate mitochondria from distal axons of DRG cultures expressing mitochondrial-targeted Killer Red (Mito-KR) protein. CALI of KR protein generates reactive oxygen species (ROS) to ˜1,000-fold higher than the fluorescent emission eGFP generates (Sano et al., 2014). Increased ROS production upon CALI of Mito-KR protein leads to mitochondrial damage and ablation of mitochondrial function, including the axonal mitochondria targeted in our experiments (Shibuya and Tsujimoto, 2012; Spillane et al., 2013).
# For mitochondrial ablation by CALI, DRG cultures expressing Mito-KR and BFP for 48 h were imaged with the same confocal microscope. Mito-KR was activated with an argon laser at 514 nm continuously for 30 s until there was no detectable signal (100% laser power). After activation, 50 μm of the distal axon shaft and the growth cone were imaged every 30 s over 16 min using 585- and 405-nm laser lines (13 and 15.3% power, respectively).
# Vesicle trafficking was quantified using differential ImageJ Difference Tracker Plug-in (Andrews et al., 2010). 50-80-μm long unbranched axon segments at approximately the mid-region between growth cone and cell body were analyzed. Kymographs were generated using ImageJ Kymograph Plug-in. […] The distance between the growth tip at end of the post-CALI sequence and the pre-CALI baseline was measured using LAS-X software. Movement of ≥0.5 μm toward the axon shaft was counted as retracted. Fluorescence emission of the Mito-KR post-CALI was analyzed using ImageJ. For normalizing intensities across FRAP image sets, fluorescence intensity at each time point was scaled using the LAS-X FRAP module so that the residual fluorescence signal at t=0 min (post-bleach) was set at 0 and the prebleach intensity was set at 100% for each bleached ROI. For axon shaft FRAP analyses, each 50-μm bleached ROI was divided into […], and the fluorescence intensity recovery was measured as described above. […] A minimum of 75 unmyelinated axons was analyzed for each nerve. […]
# [1] = laminin, TubA 10 μM 1 h or siRNA cotransfection, vs vehicle/siControl
smiles,measurement,setting,value
"CN1CCc2c(c3ccccc3n2Cc2ccc(C(=O)NO)cc2)C1 [TubA, tubastatin]",effect on MAG-Fc-dependent decrease in Mito-KR recovery after CALI,MAG-Fc + 10 μM TubA,reversed
same,growth cone retraction after CALI mitochondrial ablation,[1],majority of the TubA-treated cultures showed no growth cone retraction
same,recovery of Mito-KR fluorescence in ROI after CALI,[1],significant recovery of mitochondrial fluorescence
